Source: ChEMBL document CHEMBL1201862, “PubChem BioAssay data set” (2004)
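1) Cells in 96-well plates. 2) Compound, 48 h, 5 concentrations. 3) Linear interpolation between surrounding doses. 4) Unreached endpoint = highest concentration. The concentration for 50% growth inhibition is given as GI50.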 Calls of active or inactive are those of the source. No stated cut-off is given here; in the data, active = GI50 up to about 1.1 µM and inactive = higher.

What was measured:
Assay in all cases: growth of human tumour cells (NCI), 48 h
[1] = system: MOLT-4
[2] = system: RXF 393
[3] = system: SW-620
[4] = system: SNB-75
[5] = system: NCI-H460
[6] = system: COLO 205
[7] = system: SN12C
[8] = system: HCT-15
[9] = system: TK-10
[10] = system: SK-MEL-2
[11] = system: SK-OV-3
[12] = system: ACHN
[13] = system: EKVX
[14] = system: K562

| Structure (SMILES) | GI50 [1] | GI50 [2] | GI50 [3] | GI50 [4] | GI50 [5] | GI50 [6] | GI50 [7] | GI50 [8] | GI50 [9] | GI50 [10] | GI50 [11] | GI50 [12] | GI50 [13] | GI50 [14] |
| --- | --- | --- | --- | --- | --- | --- | --- | --- | --- | --- | --- | --- | --- | --- |
| O=C(N/N=C/c1cccc(F)c1)c1ccncc1 | > 100 µM (inactive) | > 100 µM (inactive) | > 100 µM (inactive) | > 100 µM (inactive) | > 100 µM (inactive) | > 100 µM (inactive) | > 100 µM (inactive) | > 100 µM | > 100 µM (inactive) | > 100 µM (inactive) | > 100 µM (inactive) | > 100 µM (inactive) |  |  |
| Nc1nc(Cl)cc(NCC(O)CO)n1 (centres undefined) | > 100 µM (inactive) | > 100 µM (inactive) | > 100 µM (inactive) | > 100 µM (inactive) | > 100 µM (inactive) | > 100 µM (inactive) | > 100 µM (inactive) | > 100 µM | > 100 µM (inactive) | > 100 µM (inactive) | > 100 µM (inactive) |  | > 100 µM (inactive) | > 100 µM (inactive) |
| CCOC(=O)C1([Se]c2ccccc2)CCCC1=O (centres undefined) | 22.3 µM (inactive) | 7.82 µM (inactive) |  | 23.6 µM (inactive) | 27.9 µM (inactive) | 16 µM (inactive) | 15 µM (inactive) | 13.2 µM | 77.6 µM (inactive) | 32.8 µM (inactive) | > 100 µM (inactive) | 20.3 µM (inactive) | 23.6 µM (inactive) | 33.5 µM (inactive) |
| COc1ccc(-c2cc(=O)c3cc(C)c(C)c(C(=O)O)c3o2)cc1 | > 100 µM (inactive) | > 100 µM (inactive) | > 100 µM (inactive) | > 100 µM (inactive) | > 100 µM (inactive) | > 100 µM (inactive) | > 100 µM (inactive) | > 100 µM |  | > 100 µM (inactive) | > 100 µM (inactive) | 17.9 µM (inactive) | > 100 µM (inactive) | > 100 µM (inactive) |
| Cc1ccc(S(=O)(=O)OCC/C(=C\[Si](C)(C)C)c2ccccc2)cc1 | > 100 µM (inactive) | > 100 µM (inactive) | > 100 µM (inactive) | > 100 µM (inactive) | > 100 µM (inactive) | > 100 µM (inactive) | > 100 µM (inactive) | > 100 µM | > 100 µM (inactive) | > 100 µM (inactive) | > 100 µM (inactive) | > 100 µM (inactive) | > 100 µM (inactive) | > 100 µM (inactive) |
| CCN(CC)CCCNC(=O)c1ccc([N+](=O)[O-])cc1O | > 100 µM (inactive) | > 100 µM (inactive) | > 100 µM (inactive) | > 100 µM (inactive) | > 100 µM (inactive) | > 100 µM (inactive) | > 100 µM (inactive) | > 100 µM | > 100 µM (inactive) | > 100 µM (inactive) | > 100 µM (inactive) | > 100 µM (inactive) | > 100 µM (inactive) | > 100 µM (inactive) |
| COc1ccc(OC)c2cc(C3(C)SCCCS3)ccc12 | 89.7 µM (inactive) | 20.5 µM (inactive) | > 100 µM (inactive) | 56.6 µM (inactive) | 78.3 µM (inactive) | > 100 µM (inactive) | > 100 µM (inactive) | 88.1 µM | > 100 µM (inactive) | > 100 µM (inactive) | > 100 µM (inactive) | > 100 µM (inactive) | > 100 µM (inactive) | 53.5 µM (inactive) |
| Cc1ccc(S(=O)(=O)N/N=C(/CC(=O)c2c(C)[n+]([O-])c3ccccc3[n+]2[O-])C(=O)Nc2ccc(C)c(C)c2)cc1 |  | > 100 µM (inactive) | 33.7 µM (inactive) | > 100 µM (inactive) | 41.9 µM (inactive) | 34.7 µM (inactive) | 34 µM (inactive) | 48.6 µM |  | > 100 µM (inactive) | > 100 µM (inactive) | 25.1 µM (inactive) | > 100 µM (inactive) |  |
